Molecules are shown by their SMILES. Where a name gives a salt, the structure may show the parent alone. Read-outs that look alike come from different tables or passages of the source.

Here are results for 2 compounds from patent US11401278B2, “Macrocyclic indole derivatives” (The Broad Institute, Inc., priority 2017, dated 2022).

The subject of data set [1] is SUDHL5. Put plainly: Antiproliferation assay (Assay 7), SUDHL5. The format is cell-based. The settings on record: CellTiter-Glo, 72 hours, median, read-out: Antiproli SUDHL5 [M] (median) IC50. In outline: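 Proliferation was read by CellTiter-Glo luminescence after 72 hours of compound treatment at 37° C. The read was referenced to a parallel plate measured at time zero.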
(ATP-based viability assays read luminescence as a measure of living cells.)

A further data set has as its system AMO-1. Put plainly: Antiproliferation assay (Assay 7), AMO-1. The settings on record: CellTiter-Glo, 72 hours, several values per example, read-out: Antiproli AMO-1 [M] IC50. The format is cell-based. The procedure: (§1) Assessment of the Anti-Proliferative Effect of Compounds in Different Cell Lines
(§2) The impact of compounds on the proliferation of different cell lines was assessed using the CellTiter-Glo® Luminescent Cell Viability reagent from Promega (G7573).
(§3) In parallel, cells were plated in a reference (day 0) plate for time zero determination.
(§4) Rim wells were excluded. The cells were incubated for 72 hours in a humidified incubator at 37° C. The day 0 plate was measured by adding 30 μL/well of CTG solution (CellTiter-Glo® Luminescent Cell Viability reagent, Promega G7573) to time zero wells in the reference plate followed by a 10 minutes incubation and luminescence reading at 0.1 ms. using the PHERAstar FS microplate reader (BMG Labtech).
(§5) After 72 hours incubation, the treated plates were measured in the same way as the day 0 plate mentioned above.

A further data set has as its target MCL-1 (Homo sapiens (Human), UniProt Q07820, K194A/K197A/R201A). The data set can be described thus: Protein-protein interaction assay MCL-1/Noxa BH3 peptide (MCL-1 assay, TR-FRET). The settings on record: MBP-MCL-1 / Noxa BH3 peptide, median. The format is binding. In outline:
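TR-FRET competition assay read at 665/620 nm, with a Noxa BH3 tracer peptide (1 nM) plus Eu-cryptate anti-MBP and XL665-streptavidin. Compounds (0.1 nM-20 μM, duplicates) were pre-equilibrated 10 min at 22° C with 1 nM MBP-MCL-1 (173-329) in Tris pH 7, NaCl, KF, DTT buffer, then incubated 1 h at 22° C and overnight at 4° C. IC50 came from 4-parameter regression.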

For data set [2], the system named is SUDHL10.
In data set [3] the target is SUDHL10. Put plainly: Induction of caspase-3/7 activity (Assay 4), SUDHL10. Format: cell-based. Particulars: caspase-3/7 induction, 3 hours, median. In outline: (§6)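 DLBCL cells were exposed to compounds for 3 hours at 37 °C, then caspase-3/7 activation was read with Caspase-Glo 3/7 reagent. After subtracting medium-only background, EC50s were derived with fixed C0=1 and the reference compound's maximal induction as plateau.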

The target in data set [4] is SUDHL5. Put plainly: Induction of caspase-3/7 activity (Assay 4), SUDHL5. Format: cell-based. The settings on record: caspase-3/7 induction, 3 hours, median. In outline:
as §6

Another data set concerns HMC-1-8. The data set can be described thus: Antiproliferation assay (Assay 7), HMC-1-8. Format: cell-based. Particulars: CellTiter-Glo, 72 hours, several values per example, read-out: Antiproli HMC-1-8 [M] IC50. The procedure: as §1, §2, §3, §4, §5
Data set [5] has as its system SUDHL5.
In data set [6] the test system is SUDHL10. The data set can be described thus: Induction of cytotoxicity (Assay 6), SUDHL10. Particulars: read-out: Cytotox SUDHL10 [M] (median) IC50, CellTiter-Glo, 5 hours, SUDHL10.
The subject of data set [7] is SUDHL5. The data set can be described thus: Induction of cytotoxicity (Assay 6), SUDHL5. The settings on record: read-out: Cytotox SUDHL5 [M] (median) IC50, CellTiter-Glo, 5 hours, SUDHL5.
The next data set concerns DM-S114. Put plainly: Antiproliferation assay (Assay 7), DM-S114. Particulars: CellTiter-Glo, 72 hours, median, read-out: Antiproli DM-S114 [M] median IC50. The format is cell-based. The procedure: as §1, §2, §3, §4, §5
Another data set concerns PA-1. The data set can be described thus: Antiproliferation assay (Assay 7), PA-1. The settings on record: CellTiter-Glo, 72 hours, median, read-out: Antiproli PA-1 [M] median IC50. The format is cell-based. As for the experimental part:
as §1, §2, §3, §4, §5

A further data set deals with SK-MEL-2. The data set can be described thus: Antiproliferation assay (Assay 7), SK-MEL-2. The format is cell-based. The settings on record: CellTiter-Glo, 72 hours, median, read-out: Antiproli SK-MEL-2 [M] median IC50. As for the experimental part: as §1, §2, §3, §4, §5
For another data set, the system named is A-431. The data set can be described thus: Antiproliferation assay (Assay 7), A-431. Format: cell-based. Particulars: CellTiter-Glo, 72 hours, median, read-out: Antiproli A-431 [M] median IC50. The procedure:
as §1, §2, §3, §4, §5

The next data set relates to SNU-16. The data set can be described thus: Antiproliferation assay (Assay 7), SNU-16. The format is cell-based. The settings on record: CellTiter-Glo, 72 hours, median, read-out: Antiproli SNU-16 [M] median IC50. The procedure: as §1, §2, §3, §4, §5

Chain of MCL-1 (Q07820 whole entry K194A/K197A/R201A, looked up): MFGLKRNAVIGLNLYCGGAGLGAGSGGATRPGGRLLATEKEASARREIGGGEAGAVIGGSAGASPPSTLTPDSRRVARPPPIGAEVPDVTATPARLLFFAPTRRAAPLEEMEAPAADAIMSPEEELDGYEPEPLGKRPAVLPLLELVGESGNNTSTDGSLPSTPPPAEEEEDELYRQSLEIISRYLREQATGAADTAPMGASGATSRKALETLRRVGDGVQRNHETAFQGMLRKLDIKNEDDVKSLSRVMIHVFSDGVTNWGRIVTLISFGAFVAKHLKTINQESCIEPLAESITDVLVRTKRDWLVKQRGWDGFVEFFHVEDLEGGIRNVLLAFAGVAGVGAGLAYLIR

What is called IC50 is the midpoint of a concentration-inhibition curve. The EC50 is the concentration giving half of the maximal effect. Take `CCc1c2c(nn1C)C(CCN1CCOCC1)N(C)S(=O)(=O)CCCn1c(C(=O)O)c(CCCOc3cccc4cc(F)ccc34)c3ccc(Cl)c-2c31` (racemic) [Example 74, (rac) 4-chloro-3-ethyl-7-{3-[(6-fluoronaphthalen-1-yl)oxy]propyl}-2,14-dimethyl-15-[2-(morpholin-4-yl)ethyl]-13,13-dioxo-10,11,12,13,14,15-hexahydro-2H-13lambda6-pyrazolo[3′,4′:4,5][1,2,8]thiadiazacycloundecino[6,7,8-hi]indole-8-carboxylic acid (Racemate 2)]: the IC50 with SUDHL5 [1] is 9.9e-09 M; in the data set with AMO-1 it was 3.9e-08 M; at MCL-1 it was 1.1 nM; with SUDHL10 [2], 17 nM; in the data set on HMC-1-8, 3.2e-07 M; with SUDHL5 [5] it was 13 nM. The results for the EC50 on SUDHL10 [3] and on SUDHL5 [4] were 0.014 µM and 0.011 µM, respectively.

For the compound `CCc1c2c(nn1C)C(CCN1CCOCC1)N(C)S(=O)(=O)CCCn1c(C(=O)O)c(CCCOc3cccc4cc(F)ccc34)c3ccc(Cl)c-2c31` (single isomer, unassigned; enantiomer 1) [Example 75, 4-chloro-3-ethyl-7-{3-[(6-fluoronaphthalen-1-yl)oxy]propyl}-2,14-dimethyl-15-[2-(morpholin-4-yl)ethyl]-13,13-dioxo-10,11,12,13,14,15-hexahydro-2H-13lambda^6-pyrazolo[3′,4′:4,5][1,2,8]thiadiazacycloundecino[6,7,8-hi]indole-8-carboxylic acid-N-ethylethanamine Salt (Enantiomer 1)], the IC50 is 1.6e-05 M in the data set on SUDHL10 [6]; 1.4e-05 M in the data set with SUDHL5 [1]; 1.6e-05 M with SUDHL5 [7]; 150 nM at MCL-1; 3.66e-08 M in the data set with DM-S114; 3.2e-08 M in the data set with PA-1. The IC50 in the data set with SK-MEL-2 was 4.64e-07 M; in the data set with A-431 it was 3.24e-07 M; in the data set with HMC-1-8, over 3.3e-05 M; with SNU-16, 1.26e-07 M. Besides, the EC50 at SUDHL10 [3] is 35 µM; on SUDHL5 [4], 11 µM.
